Values of other authors as cited in patent US20050085485A1, “Orally dispersible pharmaceutical piribedil composition” (priority 2002, published 2005).

Details: humans

## c1cnc(N2CCN(Cc3ccc4c(c3)OCO4)CC2)nc1 [piribedil, Piribedil]
Currently marketed prolonged-release form, 50 mg dose
  period over which therapeutic levels are spread out: more than 24 hours
Oral route in relation to the parenteral route
  bioavailability by the oral route: low
